According to patent US9901591B2, “Paeoniflorin preparations and uses thereof for fat reduction” (priority 2008, dated 2018):
Where “and” joins values, the source holds several entries; their conditions need not be identical. Equal entries are not always repeated.

Tests used:
[1] = system: 3T3-L1 adipocytes; assay: Glycerol release from differentiated 3T3-L1 adipocytes (adipolysis); format: cell-based, mouse; conditions: 1 umol/L PF vs media without PF, 7th day
Source text: The 3T3-L1 cell line is an accepted model by those of skill in the art for natural fat loss. This cell line is a substrain of Swiss 3T3 mouse cell line 3T3-L1. This cell line propagated under normal conditions has a fibroblastic phenotype. However, when treated with a combination of dexamethasone, isobutylmethylxanthine (a non-specific inhibitor of phosphodiesterases) (IBMX) and insulin, 3T3 cells adopt a rounded phenotype and accumulate lipids intracellularly in the form of fat droplets. Differentiated 3T3-L1 adipocytes were cultured in media containing 1 umol/L PF as test group, and media without PF as control. As a result of lipolysis activity, glycerol will be generated as a result of triglyceride breakdown and released into the extracellular space. Glycerol content from 3T3-L1 adipocyte cell culture media may therefore provide an indicator of adipolysis.

[2] = Blood indices before and after PF treatment in patients; format: in vivo, human
Protocol: Eight patients were treated with PF. The levels of three indices such as serum cholesterol, LDL Cholesterol, serum triglycerides in blood were tested before and after treatment.

[3] = Fat reduction with PF/azone creme and low current in patients; format: in vivo, human
Protocol: Concentration of PF included into the topical preparation: 0.2 mg to 0.3 mg of PF were dissolved in 1 ml of azone liquid.
A low current of […] is then passed through pads placed on the skin of the desired treatment area which then drives the PF through the skin into the adipose tissues, thus allowing the PF to come in contact with the fat cells.
The present preparations may be provided in the form of a creme containing 1 ml of PF at a concentration of 1 mmol mixed with 1 ml of azone which is then massaged into the target area. Azone has been extensively studied using a range of permeants. […] This process leads to increased lipid fluidity and enhanced drug diffusion. This is the reason PF was mixed with azone. Furthermore, a low current is then passed through the tissue area, which then drives the PF through the skin into the adipose tissues. PF may in this way come in contact with fat cells. The clinical results are show below and the details of each patient is documented.

[4] = human, in vivo
Protocol: For Regular Injections: After sterilization of the surface area with 74% ethanol, topical application of lignocaine ointment or lidocaine gel was applied for 5 minutes to numb the skin where the injections are to take place.
For Booster Injection: The patient is prepared using 1 ml of 2% lidocaine to anaesthetize the site of entry of the large needle. This way, the procedure is almost painless. 3-5 minutes later, the booster injection is given slowly over a 3 minute period.
Patients are forewarned that bruising may occur due to the injections. Thus, some bruising in a patient may be expected. […] The bruising, usually disappears within 1 week. In addition, redness and tenderness at the injection site of the booster, is very common. Redness lasts for a couple of hours and the tenderness lasts for a couple of days. Bruising, is encountered more with the booster than the regular injections, but also disappears within a week or so. Another observation is fatigue as a result of treatment in some patients. […] In addition, a very slight rise in temperature, to about 37.1 or 37.2 for a few hours, was noted.

[5] = Targeted fat reduction with injectable PF preparation in patients; format: in vivo, human; conditions: alternative protocol, 20 small (0.1 to 0.2 ml) injections per session, 5 sessions
[6] = per patient, number of times as in table

For `C[C@@]12C[C@@]3(O)O[C@@H](O1)[C@]1(COC(=O)c4ccccc4)[C@H]3C[C@@]12O[C@@H]1O[C@H](CO)[C@@H](O)[C@H](O)[C@H]1O` [PF, paeoniflorin], the release of glycerol [1] was “increased the release of glycerol significantly”, the “Serum Triglycerides Post-tx, Ave” value ([2]; average of eight patients, Pre-tx Ave 79.38, P 0.462, NR: 35-160) was 72.50 mg/dL and the “LDL Cholesterol Post-tx, Ave” value ([2]; average of eight patients, Pre-tx Ave 122.81, P 0.452, NR: 60-150) was 112.69 mg/dL. For the same molecule, the “Serum Cholesterol Post-tx, Ave” value ([2]; average of eight patients, Pre-tx Ave 202.88, P 0.002, NR: 50-200) was 172.75 mg/dL, the “Serum cholesterol, LDL Cholesterol, serum triglycerides in blood, change after treatment” value ([2]; eight patients, before vs after treatment) was “reduced after PF treatment” and the “Serum Triglycerides Post-tx” value ([2]; individual cases 1-8, after PF treatment, NR: 35-160) was 60 mg/dL and 59 mg/dL and 67 mg/dL and 71 mg/dL and 110 mg/dL and 55 mg/dL and 85 mg/dL and 73 mg/dL. The “Serum Cholesterol Post-tx” value ([2]; individual cases 1-8, after PF treatment, NR: 50-200) was 135 mg/dL and 151 mg/dL and 222 mg/dL and 168 mg/dL and 237 mg/dL and 150 mg/dL and 148 mg/dL and 171 mg/dL, the “LDL Cholesterol Post-tx” value ([2]; individual cases 1-8, after PF treatment, NR: 60-150) was 75 mg/dL and 92 mg/dL and 146 mg/dL and 108 mg/dL and 176.5 mg/dL and 98 mg/dL and 93 mg/dL and 113 mg/dL and the “AMOUNT OF REDUCTION IN CM, each side of the upper thigh” value ([3]; patient #3, 6 times) was 2 cm from each side of the upper. The “AMOUNT OF REDUCTION IN CM, left buttock” value ([3]; patient #4, 7 times) was 9 cm from the left buttock, the “AMOUNT OF REDUCTION IN CM, right buttock” value ([3]; patient #4, 7 times) was 8 cm from the right buttock & and the “AMOUNT OF REDUCTION IN CM, each leg below the knees” value ([3]; patient #5, 8 times) was 9 cm and 10 cm. For the same molecule, the “AMOUNT OF REDUCTION IN CM, left thigh” value ([3]; patient #7, 9 times) was 6 cm, the “AMOUNT OF REDUCTION IN CM, right thigh” value ([3]; patient #7, 9 times) was 8 cm and the “AMOUNT OF REDUCTION, bra size” value ([3]; patient #8, 30 times) was 1.5 size in bra size. For the same molecule, the “AMOUNT OF REDUCTION IN CM, love handles” value ([3]; patient #12, 8 times) was 10 cm from love handles and, the “AMOUNT OF REDUCTION IN CM, above and below the umbilicus” value [3, 6] was 3.5 cm above and below the and the “AMOUNT OF REDUCTION IN CM, above the umbilicus” value [3, 6] was 7 cm and 6 cm and 10 cm above the umbilicus, and 9 cm above the umbilicus. 9 cm. The “AMOUNT OF REDUCTION IN CM, below the umbilicus” value [3, 6] was 9 cm and 9.5 cm below the umbilicus and 6 cm below the umbilicus, the “AMOUNT OF REDUCTION IN CM, midsection” value [3, 6] was 10 cm and 5 cm from the waist and 5 cm and 9 cm above the umbilicus. 9 cm and the bruising [4] was “bruising was observed”. For the same molecule, the diarrhea [4] was “No diarrhea was observed”, the dizziness [4] was “observed in a few patients” and the fatigue [4] was “Two patients suffered from fatigue”. The “redness and tenderness at the injection site” value [4] was “very common”, the rise in temperature [4] was “about 37.1 or 37.2” and the stool [4] was “softer stool was reported”. The “time until bruising disappears” value [4] was no more than 1 week and the measurable fat loss [5] was 3 cm.
